Data taken from ChEMBL document CHEMBL1135619, “Cyclosporins: structure-activity relationships for the inhibition of the human MDR1 P-glycoprotein ABC transporter” (J Med Chem, 2002).
Where a SMILES comes first, the peptide text is derived from it. [ ]: non-standard residue; d: D form. NMeBmt(8-OH) = CN[C@H](C(=O)O)[C@H](O)[C@H](C)C/C=C/CO; MeBmt = C/C=C/C[C@@H](C)[C@@H](O)[C@H](NC)C(=O)O; Val(2S-OH) = CC(C)[C@](N)(O)C(=O)O; NMeL = CN[C@@H](CC(C)C)C(=O)O; NMeV = CN[C@H](C(=O)O)C(C)C; Sar = CNCC(=O)O

Each compound was assayed against ATP-dependent translocase ABCB1 (Homo sapiens, UniProt P08183) (assay: (§1) Inhibitory activity against Human MDR1 P-Glycoprotein ABC Transporter using leukemia CEM cells). Settings: not given.
ATP-dependent translocase ABCB1, sequence (P08183 whole entry): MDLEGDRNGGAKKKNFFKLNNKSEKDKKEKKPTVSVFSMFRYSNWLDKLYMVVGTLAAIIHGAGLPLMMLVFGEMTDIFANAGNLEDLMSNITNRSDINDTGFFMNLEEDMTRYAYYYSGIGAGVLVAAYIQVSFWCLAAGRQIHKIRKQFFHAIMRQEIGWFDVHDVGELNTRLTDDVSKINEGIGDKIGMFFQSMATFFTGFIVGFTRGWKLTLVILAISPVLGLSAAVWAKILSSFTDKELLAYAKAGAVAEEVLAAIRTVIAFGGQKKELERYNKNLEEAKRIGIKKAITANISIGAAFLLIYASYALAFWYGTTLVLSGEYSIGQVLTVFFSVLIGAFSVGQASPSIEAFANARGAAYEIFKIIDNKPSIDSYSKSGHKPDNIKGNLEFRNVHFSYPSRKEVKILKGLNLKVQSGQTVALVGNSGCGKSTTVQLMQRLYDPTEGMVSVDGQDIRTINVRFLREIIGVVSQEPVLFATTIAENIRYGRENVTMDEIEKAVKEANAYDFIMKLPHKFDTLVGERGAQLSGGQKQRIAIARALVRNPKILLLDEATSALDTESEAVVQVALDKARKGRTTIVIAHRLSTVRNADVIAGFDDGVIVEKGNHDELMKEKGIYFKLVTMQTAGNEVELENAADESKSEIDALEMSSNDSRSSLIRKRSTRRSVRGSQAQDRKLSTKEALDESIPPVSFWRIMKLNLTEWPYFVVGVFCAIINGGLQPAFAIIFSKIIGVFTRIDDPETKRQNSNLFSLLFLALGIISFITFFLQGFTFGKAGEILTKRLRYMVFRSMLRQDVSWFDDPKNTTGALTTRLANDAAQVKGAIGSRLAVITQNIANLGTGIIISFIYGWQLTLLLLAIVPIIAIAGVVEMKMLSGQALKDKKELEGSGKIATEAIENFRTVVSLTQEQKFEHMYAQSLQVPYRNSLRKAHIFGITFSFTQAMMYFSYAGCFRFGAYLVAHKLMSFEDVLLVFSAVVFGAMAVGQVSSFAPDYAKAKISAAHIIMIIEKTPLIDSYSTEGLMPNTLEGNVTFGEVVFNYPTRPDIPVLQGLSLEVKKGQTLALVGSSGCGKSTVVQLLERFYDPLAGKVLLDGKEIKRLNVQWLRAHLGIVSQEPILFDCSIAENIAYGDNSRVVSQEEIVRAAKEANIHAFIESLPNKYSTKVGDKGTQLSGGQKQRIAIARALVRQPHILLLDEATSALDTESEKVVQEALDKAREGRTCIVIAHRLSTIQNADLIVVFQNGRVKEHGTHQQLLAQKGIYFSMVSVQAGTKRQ

`C/C=C/C[C@@H](C)[C@@H](O)[C@H]1C(=O)N[C@@H](CC)C(=O)N2CCC[C@@H]2C(=O)N(C)[C@@H](CC(C)C)C(=O)N[C@@H](C(C)C)C(=O)N(C)[C@@H](CC(C)C)C(=O)N[C@@H](C)C(=O)N[C@H](C)C(=O)N(C)[C@@H](CC(C)C)C(=O)N(C)[C@@H](CC(C)C)C(=O)N(C)[C@@H](C(C)C)C(=O)N1C` and `C/C=C/C[C@@H](C)[C@@H](O)[C@H]1C(=O)N[C@@H](CC)C(=O)N2CCC[C@H]2C(=O)N(C)[C@@H](CC(C)C)C(=O)N[C@@H](C(C)C)C(=O)N(C)[C@@H](CC(C)C)C(=O)N[C@@H](C)C(=O)N[C@H](C)C(=O)N(C)[C@@H](CC(C)C)C(=O)N(C)[C@@H](CC(C)C)C(=O)N(C)[C@@H](C(C)C)C(=O)N1C` are within 1.5-fold of each other in IC50: 3.5 µM for the first, 5.2 µM for the second.

First: CC[C@@H]1NC(=O)[C@H](CC2CCCCC2)N(C)C(=O)[C@H](C(C)C)N(C)C(=O)[C@H](CC(C)C)N(C)C(=O)[C@H](CC(C)C)N(C)C(=O)[C@@H](C)NC(=O)[C@H](C)NC(=O)[C@H](CC(C)C)N(C)C(=O)[C@H](C(C)C)NC(=O)[C@H](CC(C)C)N(C)C(=O)CN(C)C1=O
Second: CCCCCC[C@H]1C(=O)N[C@@H](CC)C(=O)N(C)CC(=O)N(C)[C@@H](CC(C)C)C(=O)N[C@@H](C(C)C)C(=O)N(C)[C@@H](CC(C)C)C(=O)N[C@@H](C)C(=O)N[C@H](C)C(=O)N(C)[C@@H](CC(C)C)C(=O)N(C)[C@@H](CC(C)C)C(=O)N(C)[C@@H](C(C)C)C(=O)N1C
The IC50 of the first is 2-fold higher: 8.1 µM for the first, 4 µM for the second.

First: C/C=C/C[C@@H](C)C[C@H]1C(=O)N[C@@H](CC)C(=O)N(C)CC(=O)N(C)[C@@H](CC(C)C)C(=O)N[C@@H](C(C)C)C(=O)N(C)[C@@H](CC(C)C)C(=O)N[C@@H](C)C(=O)N[C@H](C)C(=O)N(C)[C@@H](CC(C)C)C(=O)N(C)[C@@H](CC(C)C)C(=O)N(C)[C@@H](C(C)C)C(=O)N1C
Second: CC(C)C[C@H]1C(=O)N[C@@H](C(C)C)C(=O)N(C)[C@@H](CC(C)C)C(=O)N[C@@H](C)C(=O)N[C@H](C)C(=O)N(C)[C@@H](CC(C)C)C(=O)N(C)[C@@H](CC(C)C)C(=O)N(C)[C@@H](C(C)C)C(=O)N(C)[C@@H](CC(C)C)C(=O)N[C@@H](C(C)C)C(=O)N(C)CC(=O)N1C (cyclo(A[dA][NMeL][NMeL][NMeV][NMeL]V[Sar][NMeL]V[NMeL]))
The IC50 of the first is 3.2-fold lower: 2.2 µM for the first, 7 µM for the second. The first is the more potent here.

First: C/C=C/C[C@@H](C)[C@@H](O)[C@H]1C(=O)N[C@@H]([C@@H](C)O)C(=O)N(C)CC(=O)N[C@@H](C(C)C)C(=O)N[C@@H](C(C)C)C(=O)N(C)[C@@H](CC(C)C)C(=O)N[C@@H](C)C(=O)N[C@H](C)C(=O)N(C)[C@@H](CC(C)C)C(=O)N(C)[C@@H](CC(C)C)C(=O)N(C)[C@@H](C(C)C)C(=O)N1C
Second: C/C=C/C[C@@H](C)[C@@H](O)[C@H]1C(=O)N[C@@H]([C@@H](C)O)C(=O)N(C)CC(=O)N(C)[C@@H](CC(C)C)C(=O)N[C@@H](CC(C)C)C(=O)N(C)[C@@H](CC(C)C)C(=O)N[C@@H](C)C(=O)N[C@H](C)C(=O)N(C)[C@@H](CC(C)C)C(=O)N[C@@H](CC(C)C)C(=O)N(C)[C@@H](C(C)C)C(=O)N1C (cyclo(A[dA][NMeL]L[NMeV][MeBmt]T[Sar][NMeL]L[NMeL]))
The IC50 of the first is higher: > 100 µM for the first, 6 µM for the second. The second is the more potent here.

`C/C=C/C[C@@H](C)[C@@H](O)[C@H]1C(=O)N[C@@H](CC)C(=O)NCC(=O)N(C)[C@@H](CC(C)C)C(=O)N[C@@H](C(C)C)C(=O)N(C)[C@@H](CC(C)C)C(=O)N[C@@H](C)C(=O)N[C@H](CO)C(=O)N(C)[C@@H](CC(C)C)C(=O)N(C)[C@@H](CC(C)C)C(=O)N(C)[C@@H](C(C)C)C(=O)N1C` and `C/C=C/C[C@@H](C)[C@@H](O)[C@H]1C(=O)N[C@@H]([C@@H](C)O)C(=O)N(C)CC(=O)N(C)[C@@H](CC(C)C)C(=O)N[C@@H](CC(C)C)C(=O)N(C)[C@@H](CC(C)C)C(=O)N[C@@H](C)C(=O)N[C@H](C)C(=O)N(C)[C@@H](CC(C)C)C(=O)N[C@@H](C)C(=O)N(C)[C@@H](C(C)C)C(=O)N1C` (cyclo(A[NMeV][MeBmt]T[Sar][NMeL]L[NMeL]A[dA][NMeL])) cannot be ordered by IC50: > 30 µM for the first, 56 µM for the second.

Going from `C/C=C/C[C@@H](C)[C@@H](O)[C@H]1C(=O)N[C@@H]([C@@H](C)O)C(=O)NCC(=O)N(C)[C@@H](CC(C)C)C(=O)N[C@@H](CC(C)C)C(=O)N(C)[C@@H](CC(C)C)C(=O)N[C@@H](C)C(=O)N[C@](O)(C(C)C)C(=O)N(C)[C@@H](CC(C)C)C(=O)N[C@@H](CC(C)C)C(=O)N(C)[C@@H](C(C)C)C(=O)N1C` (cyclo(A[Val(2S-OH)][NMeL]L[NMeV][MeBmt]TG[NMeL]L[NMeL])) to `C/C=C/C[C@@H](C)[C@@H](O)[C@H]1C(=O)N[C@@H]([C@@H](C)O)C(=O)N(C)CC(=O)N(C)[C@@H](CC(C)C)C(=O)N[C@@H](CC(C)C)C(=O)N(C)[C@@H](CC(C)C)C(=O)N[C@@H](C)C(=O)N[C@](O)(C(C)C)C(=O)N(C)[C@@H](CC(C)C)C(=O)N[C@@H](CC(C)C)C(=O)N(C)[C@@H](C(C)C)C(=O)N1C` (cyclo(A[Val(2S-OH)][NMeL]L[NMeV][MeBmt]T[Sar][NMeL]L[NMeL])), the IC50 falls from 4 µM to 1.6 µM (2.5-fold). The second is the more potent here.

First: C/C=C/C[C@@H](C)[C@@H](O)[C@H]1C(=O)N[C@@H]([C@@H](C)O)C(=O)N(C)CC(=O)N[C@@H](CC(C)C)C(=O)N[C@@H](CC(C)C)C(=O)N(C)[C@@H](CC(C)C)C(=O)N[C@@H](C)C(=O)N[C@](O)(C(C)C)C(=O)N(C)[C@@H](CC(C)C)C(=O)N[C@@H](CC(C)C)C(=O)N(C)[C@@H](C(C)C)C(=O)N1C (cyclo(A[Val(2S-OH)][NMeL]L[NMeV][MeBmt]T[Sar]LL[NMeL]))
Second: C/C=C/C[C@@H](C)[C@@H](O)[C@H]1C(=O)N[C@@H]([C@@H](C)O)C(=O)N(C)CC(=O)N(C)[C@@H](CC(C)C)C(=O)N[C@@H](C(C)C)C(=O)N(C)[C@@H](CC(C)C)C(=O)N[C@@H](C)C(=O)N[C@](O)(C(C)C)C(=O)N(C)[C@@H](CC(C)C)C(=O)N[C@@H](CC(C)C)C(=O)N(C)[C@@H](C(C)C)C(=O)N1C (cyclo(A[Val(2S-OH)][NMeL]L[NMeV][MeBmt]T[Sar][NMeL]V[NMeL]))
The IC50 of the first is 2-fold higher: 4.3 µM for the first, 2.1 µM for the second. The second is the more potent here.

Each compound was assayed against MDR1 P-glycoprotein (ABCB1) (Homo sapiens, UniProt P08183) (assay: as §1). Settings: human, leukemia CEM cells.
MDR1 P-glycoprotein (ABCB1), sequence (P08183 whole entry): as above

In order of falling IC50:
1. C/C=C/C[C@@H](C)[C@@H](O)C1NC(=O)[C@H](C(C)C)N(C)C(=O)[C@H](CC(C)C)N(C)C(=O)[C@H](CC(C)C)N(C)C(=O)[C@@H](C)NC(=O)[C@H](C)NC(=O)[C@@H](CC(C)C)N(C)C(=O)[C@@H](C(C)C)NC(=O)[C@@H](CC(C)C)N(C)C(=O)CN(C)C(=O)[C@H]([C@@H](C)O)NC1=O (some centres undefined)  17 µM
2. CC(C)C[C@@H]1NC(=O)[C@H](CC(C)C)N(C)C(=O)[C@@](O)(C(C)C)NC(=O)[C@H](C)NC(=O)[C@H](CC(C)C)N(C)C(=O)[C@H](CC(C)C)NC(=O)[C@H](CC(C)C)N(C)C(=O)CN(C)C(=O)[C@H]([C@@H](C)O)NC(=O)[C@H]([C@H](O)[C@H](C)C/C=C/CO)N(C)C(=O)[C@H](C(C)C)N(C)C1=O (cyclo(A[Val(2S-OH)][NMeL]L[NMeV][NMeBmt(8-OH)]T[Sar][NMeL]L[NMeL]))  15.8 µM
3. CC[C@@H]1NC(=O)[C@H](C2CCCCC2C)N(C)C(=O)[C@H](C(C)C)N(C)C(=O)[C@H](CC(C)C)N(C)C(=O)[C@H](CC(C)C)N(C)C(=O)[C@@H](C)NC(=O)[C@H](C)NC(=O)[C@H](CC(C)C)N(C)C(=O)[C@H](C(C)C)NC(=O)[C@H](CC(C)C)N(C)C(=O)CN(C)C1=O (some centres undefined)  13.1 µM
4. C/C=C/C[C@@H](C)[C@@H](O)[C@H]1C(=O)N[C@@H]([C@@H](C)O)C(=O)N(C)CC(=O)N(C)[C@@H](CC(C)C)C(=O)N[C@@H]([C@@H](C)CC)C(=O)N(C)[C@@H](CC(C)C)C(=O)N[C@@H](C)C(=O)N[C@](O)(C(C)C)C(=O)N(C)[C@@H](CC(C)C)C(=O)N[C@@H](CC(C)C)C(=O)N(C)[C@@H](C(C)C)C(=O)N1C (cyclo(A[Val(2S-OH)][NMeL]L[NMeV][MeBmt]T[Sar][NMeL]I[NMeL]))  1.6 µM
5. CC/C=C/C[C@@H](C)[C@@H](O)[C@H]1C(=O)N[C@@H](CC)C(=O)N(C)[C@@H](Cc2ccccc2)C(=O)N(C)[C@H](CC(C)C)C(=O)N[C@H](C(C)C)C(=O)N(C)[C@H](CC(C)C)C(=O)N[C@@H](C)C(=O)N[C@H](C)C(=O)N(C)[C@@H](CC(C)C)C(=O)N(C)[C@@H](CC(C)C)C(=O)N(C)[C@@H](C(C)C)C(=O)N1C  1.5 µM
